Assay results published in ChEMBL document CHEMBL1201862, “PubChem BioAssay data set” (2004).
Activity calls are given as the source filed them.

Key:
[1] = biological target: Peroxisome proliferator-activated receptor gamma/Nuclear receptor coactivator 1 (Homo sapiens, UniProt P37231); experiment: (§1) TR-FRET dose response biochemical High Throughput Screening assay for agonists of the steroid receptor coactivator 1 (SRC-1) recruitment by the peroxisome proliferator-activated receptor gamma (PPAR gamma): non-selective agonists. [Related pubchem assays (depositor defined):AID1300, AID1808, AID504735, AID631]; assay type: protein assay
[2] = biological target: Peroxisome proliferator-activated receptor gamma/Nuclear receptor coactivator 3 (Homo sapiens, UniProt P37231); experiment: as §1, with “3 (SRC-3)” for “1 (SRC-1)”, “assays: 1301 (Confirmation screen.), 1048 (Primary screen.)]” for “assays (depositor defined):AID1300, AID1808, AID504735, AID631]”; assay type: functional
[3] = biological target: Peroxisome proliferator-activated receptor gamma/Nuclear receptor coactivator 2 (Homo sapiens, UniProt P37231); experiment: TR-FRET dose response biochemical High Throughput Screening assay for agonists of the steroid receptor coactivator 2 (SRC-2) recruitment by the peroxisome proliferator-activated receptor gamma (PPAR gamma): non-selective agonists. [Related pubchem assays: 1297, 1032 ]; assay type: functional
Genome polyprotein = Genome polyprotein (dengue virus type 2, UniProt P29990); experiment: Dengue-2 NS5 methyltransferase inhibitors, primary screen, biochemical, confirmation dose response (AID 588689); assay type: functional
[4] = biological target: T1, Short transient receptor potential channel 4 (Mus musculus, UniProt Q9QUQ5); experiment: mouse TRPC4 channel inhibitors, dose response, cell-based, HEK293 TRPC4/mu-opioid, Fluo-4 calcium (AID 434942); assay type: functional;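 also: potency of inhibitors blocking the TRPC4 calcium response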
T1 sequence (Q9QUQ5 whole entry): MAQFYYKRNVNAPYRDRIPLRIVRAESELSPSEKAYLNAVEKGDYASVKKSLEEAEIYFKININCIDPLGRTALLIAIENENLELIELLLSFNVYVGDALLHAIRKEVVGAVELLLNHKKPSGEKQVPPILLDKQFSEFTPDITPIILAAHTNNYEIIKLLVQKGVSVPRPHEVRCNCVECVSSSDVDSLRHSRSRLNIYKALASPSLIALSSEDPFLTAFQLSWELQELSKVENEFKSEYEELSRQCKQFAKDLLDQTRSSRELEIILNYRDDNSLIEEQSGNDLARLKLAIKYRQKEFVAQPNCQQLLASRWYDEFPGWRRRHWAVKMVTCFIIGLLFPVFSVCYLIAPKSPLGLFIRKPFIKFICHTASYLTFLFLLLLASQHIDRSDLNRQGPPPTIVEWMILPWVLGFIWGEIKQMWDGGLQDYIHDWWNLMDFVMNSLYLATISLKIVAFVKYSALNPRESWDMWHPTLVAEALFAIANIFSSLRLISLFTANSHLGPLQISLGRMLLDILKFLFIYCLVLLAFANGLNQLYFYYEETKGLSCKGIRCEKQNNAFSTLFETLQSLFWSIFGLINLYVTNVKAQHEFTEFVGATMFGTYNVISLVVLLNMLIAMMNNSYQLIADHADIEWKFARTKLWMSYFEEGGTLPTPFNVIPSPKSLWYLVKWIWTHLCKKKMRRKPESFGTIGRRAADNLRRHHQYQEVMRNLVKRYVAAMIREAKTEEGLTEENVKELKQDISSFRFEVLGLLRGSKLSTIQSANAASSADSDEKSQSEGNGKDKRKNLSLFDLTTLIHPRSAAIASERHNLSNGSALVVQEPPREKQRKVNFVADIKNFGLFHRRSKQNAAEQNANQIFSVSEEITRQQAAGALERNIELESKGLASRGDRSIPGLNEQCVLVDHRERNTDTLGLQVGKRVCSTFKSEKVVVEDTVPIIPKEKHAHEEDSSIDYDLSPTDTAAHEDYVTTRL

[5] = biological target: T2, DNA repair and recombination protein RAD54-like (Homo sapiens, UniProt Q92698); experiment: inhibitors of human RAD54 branch migration, confirmation, biochemical, fluorescence, cherry-picked samples, dose series (AID 651657); assay type: functional
T2 sequence (Q92698 whole entry): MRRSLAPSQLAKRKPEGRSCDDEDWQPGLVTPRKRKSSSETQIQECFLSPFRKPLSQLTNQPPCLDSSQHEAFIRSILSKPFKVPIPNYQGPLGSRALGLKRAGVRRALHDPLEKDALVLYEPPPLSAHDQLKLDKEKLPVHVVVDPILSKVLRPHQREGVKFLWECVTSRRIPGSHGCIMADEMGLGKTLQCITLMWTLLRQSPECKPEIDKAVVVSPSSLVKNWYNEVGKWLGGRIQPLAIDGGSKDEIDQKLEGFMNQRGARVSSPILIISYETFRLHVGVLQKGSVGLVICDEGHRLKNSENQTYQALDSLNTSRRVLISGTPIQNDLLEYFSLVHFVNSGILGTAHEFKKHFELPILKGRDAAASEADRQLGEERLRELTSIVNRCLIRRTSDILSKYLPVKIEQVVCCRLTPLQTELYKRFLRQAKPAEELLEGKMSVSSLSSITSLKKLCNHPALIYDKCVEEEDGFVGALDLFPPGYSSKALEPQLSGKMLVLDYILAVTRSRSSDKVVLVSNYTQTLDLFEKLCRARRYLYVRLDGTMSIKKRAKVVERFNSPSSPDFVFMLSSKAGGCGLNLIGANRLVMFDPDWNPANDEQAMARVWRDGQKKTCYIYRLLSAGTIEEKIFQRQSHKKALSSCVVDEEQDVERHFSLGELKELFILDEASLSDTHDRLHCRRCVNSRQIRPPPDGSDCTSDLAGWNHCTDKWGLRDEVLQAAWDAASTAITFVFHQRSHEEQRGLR

[6] = biological target: T3, DNA repair protein RAD52 homolog (Homo sapiens, UniProt P43351); assay type: functional, biochemical
T3 sequence (P43351 whole entry): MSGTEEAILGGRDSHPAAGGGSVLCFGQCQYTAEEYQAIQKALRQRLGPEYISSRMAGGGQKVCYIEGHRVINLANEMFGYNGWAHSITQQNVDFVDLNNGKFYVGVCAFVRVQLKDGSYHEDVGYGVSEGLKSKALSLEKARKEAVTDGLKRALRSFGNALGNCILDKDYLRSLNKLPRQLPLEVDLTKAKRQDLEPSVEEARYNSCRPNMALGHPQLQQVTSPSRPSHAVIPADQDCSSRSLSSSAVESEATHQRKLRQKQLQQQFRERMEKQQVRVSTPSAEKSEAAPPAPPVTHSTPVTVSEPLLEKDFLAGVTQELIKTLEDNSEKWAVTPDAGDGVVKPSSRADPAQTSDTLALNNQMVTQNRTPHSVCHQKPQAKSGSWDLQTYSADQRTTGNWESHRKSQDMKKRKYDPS

[7] = A cytotoxicity screen of small molecule inhibitors of the PhoP region in Salmonella typhi identified in the primary screen. [Related pubchem assays: 1850, 1864, 1985 ]; assay type: functional
Fatty acid synthase [8] = biological target: T4, Fatty acid synthase (Homo sapiens, UniProt P49327); experiment: FAS thioesterase domain inhibitors, dose response, biochemical, endpoint fluorescence intensity, uHTS hits (AID 624327); assay type: functional;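 also: fluorescence from hydrolysis of an O-methyl fluorescein acyl ester substrate by the enzyme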
Fatty acid synthase [9] = biological target: T4, Fatty acid synthase; experiment: FAS thioesterase domain inhibitors, dose response, biochemical, kinetic fluorescence intensity (AID 624326); assay type: functional;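 also: rate of fluorescence rise from hydrolysis of a fluorogenic O-methyl fluorescein ester substrate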
[10] = biological target: T1, Short transient receptor potential channel 4; experiment: mouse TRPC4 channel activators, dose response, cell-based, HEK293 TRPC4/mu-opioid, Fluo-4 calcium (AID 434937); assay type: functional
[11] = biological target: DNA dC->dU-editing enzyme APOBEC-3G (Homo sapiens, UniProt Q9HC16); experiment: Dose Response confirmation of small molecule APOBEC3G DNA Deaminase Inhibitors via a fluorescence-based single-stranded DNA deaminase assay. [Related pubchem assays (depositor defined):AID493012, AID493028]; assay type: functional
[12] = growth suppression of PTEN-null colon cells, dose response, cell-based, HCT116 PTEN knockout (AID 1047); assay type: functional;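 also: HCT116 colon tumor cells with PTEN knocked out; cells exposed to compound for 60 hours before readout; potency for loss of cell viability measured by luminescence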
[13] = growth suppression of beta-catenin-knockout colon cells, dose response, cell-based, HCT116, human colon tumor (AID 1045); assay type: functional;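 also: HCT116 colon tumor cells with beta catenin knocked out; cells exposed to compound for 60 hours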
[14] = biological target: Glucose-6-phosphate 1-dehydrogenase (Homo sapiens, UniProt P11413); experiment: human G6PD enzyme inhibitors, dose response, selectivity assay for P. falciparum G6PD inhibitor project, biochemical, fluorescence (AID 504792); assay type: functional
[15] = inhibitors of intracellular T. cruzi replication, confirmation, NIH3T3 host cells, beta-gal luminescence (AID 2044); assay type: functional, cell-based;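 also: intracellular parasites grown in NIH/3T3 mouse fibroblasts as host cells; luminescent beta-galactosidase reporter signal from transgenic T. cruzi replicating inside host cells; inhibitors lower the luminescence signal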
[16] = cytotoxicity toward NIH3T3 fibroblasts, dose response, counter-screen, cell-based, ATP luminescence, mouse fibroblasts (AID 2010); assay type: functional; settings: NIH3T3;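 also: cells exposed to compound for about 90 hours before reading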
[17] = biological target: T5, Mannose-6-phosphate isomerase (Homo sapiens, UniProt P34949); experiment: human PMI inhibitors, high substrate, primary screen, biochemical, fluorescence intensity, high mannose 6-phosphate (AID 1220)
T5 sequence (P34949 whole entry): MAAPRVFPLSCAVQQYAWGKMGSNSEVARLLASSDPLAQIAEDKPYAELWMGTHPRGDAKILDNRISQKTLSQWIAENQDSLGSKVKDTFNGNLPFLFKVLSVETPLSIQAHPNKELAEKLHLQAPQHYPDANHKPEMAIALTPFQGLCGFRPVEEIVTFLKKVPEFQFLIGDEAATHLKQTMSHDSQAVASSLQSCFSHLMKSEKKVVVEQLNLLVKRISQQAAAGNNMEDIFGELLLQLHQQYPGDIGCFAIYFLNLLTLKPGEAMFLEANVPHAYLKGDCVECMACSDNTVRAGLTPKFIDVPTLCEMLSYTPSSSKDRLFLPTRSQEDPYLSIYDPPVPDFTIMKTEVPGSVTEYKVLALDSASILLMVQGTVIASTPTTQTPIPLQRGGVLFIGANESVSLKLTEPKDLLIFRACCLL

Chain of DNA dC->dU-editing enzyme APOBEC-3G (Q9HC16 whole entry): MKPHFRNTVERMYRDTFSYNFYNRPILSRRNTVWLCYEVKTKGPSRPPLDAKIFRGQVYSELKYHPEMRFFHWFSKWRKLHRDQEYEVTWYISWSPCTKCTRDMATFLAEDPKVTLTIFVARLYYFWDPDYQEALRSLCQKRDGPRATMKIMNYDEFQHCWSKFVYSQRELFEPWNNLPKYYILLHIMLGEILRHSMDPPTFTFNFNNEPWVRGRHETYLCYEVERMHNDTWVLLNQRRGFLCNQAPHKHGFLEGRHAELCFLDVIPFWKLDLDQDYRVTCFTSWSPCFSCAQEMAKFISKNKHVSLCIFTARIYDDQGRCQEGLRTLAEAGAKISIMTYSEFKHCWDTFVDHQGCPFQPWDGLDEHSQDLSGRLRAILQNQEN
T4 sequence (P49327 whole entry, the tested form may be a part): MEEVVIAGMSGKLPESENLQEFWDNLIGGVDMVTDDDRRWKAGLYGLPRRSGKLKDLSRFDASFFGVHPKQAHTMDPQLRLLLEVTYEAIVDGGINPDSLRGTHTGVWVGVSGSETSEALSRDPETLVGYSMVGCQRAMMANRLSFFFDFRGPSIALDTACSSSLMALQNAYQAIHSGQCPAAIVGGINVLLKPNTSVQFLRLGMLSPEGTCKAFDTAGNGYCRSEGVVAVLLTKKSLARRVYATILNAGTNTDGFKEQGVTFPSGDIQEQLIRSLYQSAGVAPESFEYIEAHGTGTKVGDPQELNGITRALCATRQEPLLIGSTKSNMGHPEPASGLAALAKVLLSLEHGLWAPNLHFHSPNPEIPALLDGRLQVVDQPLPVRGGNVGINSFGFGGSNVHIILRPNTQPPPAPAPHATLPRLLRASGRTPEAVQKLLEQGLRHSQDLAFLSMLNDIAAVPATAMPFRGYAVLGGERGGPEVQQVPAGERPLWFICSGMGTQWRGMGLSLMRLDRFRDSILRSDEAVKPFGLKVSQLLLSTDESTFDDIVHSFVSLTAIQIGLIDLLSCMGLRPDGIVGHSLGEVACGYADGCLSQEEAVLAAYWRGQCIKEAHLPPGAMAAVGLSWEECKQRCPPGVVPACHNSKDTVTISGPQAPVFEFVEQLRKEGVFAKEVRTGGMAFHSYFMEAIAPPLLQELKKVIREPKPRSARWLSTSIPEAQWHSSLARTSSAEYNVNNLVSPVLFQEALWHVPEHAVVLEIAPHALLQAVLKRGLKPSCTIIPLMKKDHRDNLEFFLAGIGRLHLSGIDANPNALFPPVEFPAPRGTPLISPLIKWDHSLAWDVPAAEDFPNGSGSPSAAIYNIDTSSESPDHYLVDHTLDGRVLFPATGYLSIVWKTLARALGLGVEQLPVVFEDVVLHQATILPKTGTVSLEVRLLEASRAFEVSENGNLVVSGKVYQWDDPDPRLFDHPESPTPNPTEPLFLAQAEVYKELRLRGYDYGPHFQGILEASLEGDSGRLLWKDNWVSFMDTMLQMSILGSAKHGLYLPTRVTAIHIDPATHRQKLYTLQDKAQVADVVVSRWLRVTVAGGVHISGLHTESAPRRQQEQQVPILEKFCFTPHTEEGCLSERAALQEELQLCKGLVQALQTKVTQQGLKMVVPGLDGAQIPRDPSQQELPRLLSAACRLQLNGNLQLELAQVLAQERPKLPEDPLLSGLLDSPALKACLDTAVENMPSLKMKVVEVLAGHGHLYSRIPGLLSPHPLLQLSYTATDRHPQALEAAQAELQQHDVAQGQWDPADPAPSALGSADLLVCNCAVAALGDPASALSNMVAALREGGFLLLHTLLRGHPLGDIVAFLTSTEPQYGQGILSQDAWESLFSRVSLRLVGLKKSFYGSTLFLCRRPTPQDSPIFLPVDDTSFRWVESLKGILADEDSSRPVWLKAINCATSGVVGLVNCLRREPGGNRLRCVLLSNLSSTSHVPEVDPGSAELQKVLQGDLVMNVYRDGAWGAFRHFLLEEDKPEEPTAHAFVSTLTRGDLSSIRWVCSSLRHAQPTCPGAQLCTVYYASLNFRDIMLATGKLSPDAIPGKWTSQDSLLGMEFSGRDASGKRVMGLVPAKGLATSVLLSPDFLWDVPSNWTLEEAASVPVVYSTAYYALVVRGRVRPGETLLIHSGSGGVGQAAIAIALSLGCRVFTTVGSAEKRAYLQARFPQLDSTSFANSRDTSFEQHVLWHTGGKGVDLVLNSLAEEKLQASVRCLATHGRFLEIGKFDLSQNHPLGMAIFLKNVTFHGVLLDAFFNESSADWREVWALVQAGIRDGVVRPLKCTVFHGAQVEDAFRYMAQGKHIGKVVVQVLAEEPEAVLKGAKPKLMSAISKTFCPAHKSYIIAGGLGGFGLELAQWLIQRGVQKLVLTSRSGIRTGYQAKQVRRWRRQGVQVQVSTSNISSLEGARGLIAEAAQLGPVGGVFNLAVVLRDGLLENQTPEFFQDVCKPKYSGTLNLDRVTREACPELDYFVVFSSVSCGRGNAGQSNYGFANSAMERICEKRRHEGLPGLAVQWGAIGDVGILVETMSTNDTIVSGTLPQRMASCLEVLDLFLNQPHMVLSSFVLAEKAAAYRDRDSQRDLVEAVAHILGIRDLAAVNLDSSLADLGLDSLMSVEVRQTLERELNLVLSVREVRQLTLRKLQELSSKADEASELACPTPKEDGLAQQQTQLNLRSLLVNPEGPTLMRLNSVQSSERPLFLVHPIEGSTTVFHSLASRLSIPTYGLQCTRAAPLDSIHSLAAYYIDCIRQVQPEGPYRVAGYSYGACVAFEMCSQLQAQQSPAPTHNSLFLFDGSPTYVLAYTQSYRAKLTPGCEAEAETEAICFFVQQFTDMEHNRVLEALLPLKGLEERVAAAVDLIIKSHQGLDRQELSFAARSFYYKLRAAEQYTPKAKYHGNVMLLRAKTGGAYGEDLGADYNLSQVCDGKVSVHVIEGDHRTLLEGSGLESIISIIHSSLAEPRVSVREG
Chain of Peroxisome proliferator-activated receptor gamma/Nuclear receptor coactivator 3 (P37231 whole entry): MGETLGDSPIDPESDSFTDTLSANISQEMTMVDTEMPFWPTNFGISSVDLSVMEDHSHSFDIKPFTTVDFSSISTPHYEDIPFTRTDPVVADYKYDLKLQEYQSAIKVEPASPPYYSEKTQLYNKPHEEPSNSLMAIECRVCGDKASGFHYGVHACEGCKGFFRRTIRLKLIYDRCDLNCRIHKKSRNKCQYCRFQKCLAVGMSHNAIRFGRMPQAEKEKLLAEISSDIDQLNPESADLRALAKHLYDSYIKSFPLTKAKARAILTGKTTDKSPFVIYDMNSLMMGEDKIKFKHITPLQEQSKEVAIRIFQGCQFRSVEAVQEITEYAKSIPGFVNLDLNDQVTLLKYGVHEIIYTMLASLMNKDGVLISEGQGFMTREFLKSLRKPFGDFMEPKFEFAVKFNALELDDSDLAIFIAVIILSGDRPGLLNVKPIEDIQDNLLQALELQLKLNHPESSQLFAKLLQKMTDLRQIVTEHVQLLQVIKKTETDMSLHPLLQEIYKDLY
Chain of Peroxisome proliferator-activated receptor gamma/Nuclear receptor coactivator 3 (Q9Y6Q9 whole entry, further chain): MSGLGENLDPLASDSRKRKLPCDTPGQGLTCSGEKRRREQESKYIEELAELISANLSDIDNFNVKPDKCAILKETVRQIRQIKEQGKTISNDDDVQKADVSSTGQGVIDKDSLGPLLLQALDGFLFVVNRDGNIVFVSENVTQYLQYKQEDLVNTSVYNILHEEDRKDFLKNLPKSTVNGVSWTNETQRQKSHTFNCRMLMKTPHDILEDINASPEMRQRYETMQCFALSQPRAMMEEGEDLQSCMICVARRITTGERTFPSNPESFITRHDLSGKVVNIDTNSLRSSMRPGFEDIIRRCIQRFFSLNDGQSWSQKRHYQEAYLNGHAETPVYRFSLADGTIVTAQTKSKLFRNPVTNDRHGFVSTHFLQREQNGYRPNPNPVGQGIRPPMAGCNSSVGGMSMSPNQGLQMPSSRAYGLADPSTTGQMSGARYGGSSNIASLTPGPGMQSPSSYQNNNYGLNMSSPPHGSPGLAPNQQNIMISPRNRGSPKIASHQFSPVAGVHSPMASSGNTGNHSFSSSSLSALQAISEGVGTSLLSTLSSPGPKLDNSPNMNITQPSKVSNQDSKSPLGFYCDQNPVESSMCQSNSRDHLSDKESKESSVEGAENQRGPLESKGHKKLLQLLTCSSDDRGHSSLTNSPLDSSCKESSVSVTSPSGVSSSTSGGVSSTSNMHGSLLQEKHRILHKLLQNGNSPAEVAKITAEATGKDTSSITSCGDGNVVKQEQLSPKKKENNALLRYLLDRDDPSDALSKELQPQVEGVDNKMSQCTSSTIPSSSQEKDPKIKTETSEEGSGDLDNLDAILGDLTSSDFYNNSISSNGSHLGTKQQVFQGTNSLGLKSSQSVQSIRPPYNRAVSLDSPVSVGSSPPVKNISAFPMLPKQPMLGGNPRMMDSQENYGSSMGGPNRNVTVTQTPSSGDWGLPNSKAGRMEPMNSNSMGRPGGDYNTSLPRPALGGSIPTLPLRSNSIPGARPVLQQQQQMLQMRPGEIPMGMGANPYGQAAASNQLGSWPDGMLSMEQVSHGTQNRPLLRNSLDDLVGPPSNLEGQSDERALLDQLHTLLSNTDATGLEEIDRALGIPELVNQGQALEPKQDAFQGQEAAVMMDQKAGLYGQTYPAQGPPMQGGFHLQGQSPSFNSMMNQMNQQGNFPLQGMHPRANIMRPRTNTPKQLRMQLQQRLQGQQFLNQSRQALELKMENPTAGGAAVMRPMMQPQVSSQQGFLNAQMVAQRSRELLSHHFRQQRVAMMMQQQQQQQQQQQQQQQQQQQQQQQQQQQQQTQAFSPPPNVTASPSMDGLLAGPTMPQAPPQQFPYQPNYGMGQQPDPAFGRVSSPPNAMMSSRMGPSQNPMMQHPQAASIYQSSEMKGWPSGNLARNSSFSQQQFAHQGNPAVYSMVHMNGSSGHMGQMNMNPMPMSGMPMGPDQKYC

## COc1cc(/C=C(\C#N)C(=O)Nc2ccccc2C(=O)O)cc(Cl)c1OC
[1]
  EC50: > 79.4 µM (inactive)
[2]
  EC50: 8.27 µM (active)
[3]
  EC50: > 79.4 µM (not active)
Genome polyprotein
  IC50: 60.6 µM (active)

## O=C(CSc1nc(=O)n(CCN2CCOCC2)c2c1CCC2)Nc1ccc(OC(F)(F)F)cc1
[4]
  EC50: 7.5 µM (active)

## CCN(CC)Cc1cc(Nc2ccnc3cc(Cl)ccc23)ccc1O
[5]
  AC50: 10.3 µM (active)
[6]
  AC50: 10 µM (active)

## Cc1onc(-c2c(F)cccc2Cl)c1C(=O)Nc1nnc(-c2ccccc2)s1
[1]
  EC50: 446 µM (inactive)
[2]
  EC50: > 79.4 µM (not active)
[3]
  EC50: 29.8 µM (not active)

## Cc1cccc(C(=O)NCCC(=O)Nc2ccc(F)c([N+](=O)[O-])c2)c1
[7]
  EC50: > 50 µM (active)
Fatty acid synthase [8]
  IC50: 12.3 µM (active)
Fatty acid synthase [9]
  IC50: 9.57 µM (active)

## CN(C)CCNC(=O)c1c(NC(=O)c2ccccc2)sc2c1CCCC2
[10]
  EC50: 5.96 µM (active)
[5]
  AC50: 56.4 µM (active)

## CCOc1ccc(C(=S)NC2CCCCC2)cc1OCC
[11]
  IC50: 55.7 µM (active)

## CC1=CC(=NOC(=O)/C=C/c2ccccc2)C=C(C)C1=O
[12]
  EC50: 14 µM (active)
[13]
  EC50: 13.6 µM (active)
[14]
  IC50: > 80 µM (inactive)

## Cc1nc([N+](=O)[O-])nn1C12CC3CC(CC(Br)(C3)C1)C2
[15]
  EC50: 0.105 µM (active)
[16]
  EC50: > 60 µM (not active)
[17]
  IC50: 26.3 µM (active)
[11]
  IC50: 49.6 µM (active)

## Cc1ccc(-c2csc3nc(SCC(=O)Nc4ccc(Cl)c(C(=O)O)c4)nc(O)c23)cc1
Genome polyprotein
  IC50: 37 µM (active)
